Experimental data reported in PubChem BioAssay (NCI).
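The compound was tested at five concentrations on cells cultured in 96-well plates, with a 48-hour exposure period. GI50: concentration for 50% inhibition of growth. Definition used: TGI = concentration required for complete inhibition of growth.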

What was measured:
Assay in all cases: DTP human tumour cell line panel, 48 h
786-0 renal = tested on: 786-0 renal
DU-145 prostate = tested on: DU-145 prostate
HCT-15 colon = tested on: HCT-15 colon
IGROV1 ovarian = tested on: IGROV1 ovarian
LOX IMVI melanoma = tested on: LOX IMVI melanoma
MALME-3M melanoma = tested on: MALME-3M melanoma
OVCAR-4 ovarian = tested on: OVCAR-4 ovarian
OVCAR-8 ovarian = tested on: OVCAR-8 ovarian
M14 melanoma = tested on: M14 melanoma
RXF 393 renal = tested on: RXF 393 renal

Row | SMILES | TGI (786-0 renal) | TGI (DU-145 prostate) | TGI (HCT-15 colon) | TGI (IGROV1 ovarian) | TGI (LOX IMVI melanoma) | TGI (MALME-3M melanoma) | TGI (OVCAR-4 ovarian) | TGI (OVCAR-8 ovarian) | TGI (M14 melanoma) | TGI (RXF 393 renal) | GI50 (786-0 renal) | GI50 (DU-145 prostate) | GI50 (HCT-15 colon) | GI50 (IGROV1 ovarian) | GI50 (LOX IMVI melanoma) | GI50 (M14 melanoma) | GI50 (OVCAR-4 ovarian) | GI50 (OVCAR-8 ovarian) | GI50 (RXF 393 renal) | GI50 (MALME-3M melanoma)
1 | O=C1CC=C2C3CC4N(CCC45c4ccccc4N1C25)C/C3=C\CO (stereo not drawn) | > 100 µM | > 100 µM | > 100 µM | > 100 µM | > 100 µM | > 100 µM | > 100 µM | > 100 µM | – | – | – | – | – | – | – | – | – | – | – | –
2 | COc1ccc(/C=C/c2cc(OC)c(OC)c(OC)c2)cc1OC | > 100 µM | – | > 100 µM | > 100 µM | > 100 µM | > 100 µM | > 100 µM | > 100 µM | > 100 µM | > 100 µM | – | – | – | – | – | – | – | – | – | –
3 | NC1=C(O)/C(=N/NS(=O)(=O)c2ccccc2)C(c2ccc3c(c2)OCO3)O1 (stereo not drawn) | > 100 µM | – | > 100 µM | > 100 µM | > 100 µM | > 100 µM | > 100 µM | > 100 µM | > 100 µM | > 100 µM | – | – | – | – | – | – | – | – | – | –
4 | O=C(N/C(=C\c1cccc([N+](=O)[O-])c1)c1nc2c3c(ccc2[nH]1)C(=O)c1ccccc1C3=O)c1ccccc1 | > 100 µM | – | > 100 µM | – | – | > 100 µM | – | > 100 µM | > 100 µM | – | – | – | – | – | – | – | – | – | – | –
5 | O=[N+]([O-])c1cc(I)cc(/C=N/NS(=O)(=O)c2ccc(F)cc2)c1O | 82.9 µM | – | 64.7 µM | 95.7 µM | 57.4 µM | 52.4 µM | > 100 µM | 55.3 µM | 82.3 µM | 49.9 µM | – | – | – | – | – | – | – | – | – | –
6 | Cn1nc(-c2ccccc2)c2c(/C=C/c3ccc(F)cc3)onc2c1=O | > 100 µM | – | > 100 µM | > 100 µM | > 100 µM | – | – | > 100 µM | > 100 µM | 70.7 µM | – | – | – | – | – | – | – | – | – | –
7 | C=CCN=C1NC(=O)C(CC(=O)Nc2cccc(Cl)c2)S1 (stereo not drawn) | > 100 µM | – | > 100 µM | > 100 µM | > 100 µM | > 100 µM | > 100 µM | > 100 µM | > 100 µM | > 100 µM | – | – | – | – | – | – | – | – | – | –
8 | O=C(/C=C/c1ccc(-c2ccccc2)cc1)c1ccccc1 | 50.9 µM | – | 54.9 µM | 69.1 µM | 29.2 µM | > 100 µM | > 100 µM | 33.8 µM | > 100 µM | – | – | – | – | – | – | – | – | – | – | –
9 | C/C(COc1ccc2oc(-c3ccccc3)cc(=O)c2c1)=N\O | > 100 µM | > 100 µM | > 100 µM | > 100 µM | 3.34 µM | – | > 100 µM | > 100 µM | 46.3 µM | > 100 µM | 9.05 µM | 48.5 µM | 7.87 µM | 43.8 µM | 1.38 µM | 15.3 µM | > 100 µM | > 100 µM | > 100 µM | –
10 | CC(=O)CCc1ccc(Oc2c3ccccc3nc3occc23)cc1 | 45.2 µM | 34.1 µM | 73.7 µM | > 100 µM | 41.8 µM | – | > 100 µM | 41.4 µM | 29.2 µM | 39.1 µM | 18.5 µM | 14.8 µM | 18.6 µM | 33.9 µM | 14.8 µM | 15.3 µM | 37.6 µM | 15.7 µM | 14 µM | –
11 | COC(=O)CCCCCOS(=O)(=O)c1ccc(C)cc1 | > 100 µM | – | > 100 µM | > 100 µM | > 100 µM | > 100 µM | – | > 100 µM | > 100 µM | > 100 µM | – | – | – | – | – | – | – | – | – | –
12 | Cc1ccccc1SC(/C=C/NNC1=NC(c2ccccc2)C(c2ccccc2)=NN1)c1ccccc1 (stereo not drawn) | 25.9 µM | – | > 100 µM | 80.2 µM | > 100 µM | 75.1 µM | 9.16 µM | 40 µM | 87.6 µM | 31.2 µM | – | – | – | – | – | – | – | – | – | –
13 | COc1ccc(C2=NN(C(C)=O)c3nc4ccccc4nc3O2)cc1 | 48.7 µM | – | > 100 µM | 27.4 µM | – | > 100 µM | 98.4 µM | > 100 µM | – | – | – | – | – | – | – | – | – | – | – | –
14 | Cn1c(=O)nc2n(-c3ccc(F)c(F)c3)c3ccccc3nc-2c1=O | > 100 µM | – | 20.4 µM | 41.4 µM | – | 24.3 µM | 21.1 µM | 68.1 µM | 45 µM | 72.5 µM | – | – | – | – | – | – | – | – | – | –
15 | Oc1ccc(O)c(-n2cccn2)c1 | > 100 µM | – | > 100 µM | > 100 µM | > 100 µM | > 100 µM | > 100 µM | > 100 µM | > 100 µM | > 100 µM | – | – | – | – | – | – | – | – | – | –
16 | C[N+]1(CCNP(=S)(NCC[N+]2(C)Cc3c(ccc4c3OCO4)C3C2c2cc4c(cc2C[C@@H]3O)OCO4)NCC[N+]2(C)Cc3c(ccc4c3OCO4)C3C2c2cc4c(cc2C[C@@H]3O)OCO4)Cc2c(ccc3c2OCO3)C2C1c1cc3c(cc1C[C@H]2O)OCO3 (stereo partly drawn) | – | – | < 0.00191 µM | – | – | – | – | < 0.00191 µM | < 0.00191 µM | – | 5.22 µM | – | – | 4.9 µM | 1.92 µM | – | 4.74 µM | – | 1.76 µM | 2.09 µM
17 | CCCC(=O)Oc1ccc(/C=N/NC(N)=S)nc1 | > 100 µM | – | > 100 µM | > 100 µM | > 100 µM | > 100 µM | > 100 µM | > 100 µM | > 100 µM | > 100 µM | – | – | – | – | – | – | – | – | – | –
18 | CCOC(=O)NC(=O)c1cn(C2CCCCC2)c(=O)n(C)c1=O | > 100 µM | – | > 100 µM | > 100 µM | > 100 µM | > 100 µM | > 100 µM | > 100 µM | > 100 µM | > 100 µM | – | – | – | – | – | – | – | – | – | –
19 | CCCCCCCCCCNC(=S)OC | > 100 µM | – | 86.7 µM | > 100 µM | 39.6 µM | > 100 µM | > 100 µM | > 100 µM | > 100 µM | > 100 µM | – | – | – | – | – | – | – | – | – | –
20 | CC(=O)O[C@H]1CC[C@@]2(C)C(=CC[C@H]3C(CC#N)[C@@](C)(C#N)CCC32)C1 (stereo partly drawn) | > 100 µM | – | > 100 µM | > 100 µM | > 100 µM | > 100 µM | > 100 µM | > 100 µM | > 100 µM | > 100 µM | – | – | – | – | – | – | – | – | – | –
21 | COC(=O)[C@@H](C)C[C@H](Cc1ccc(F)cc1)NC(=O)c1csc([C@@H](C[C@H](C(C)C)N(C)C(=O)[C@@H](NC(=O)[C@H]2CCCCN2C)C2CC2)OC(C)=O)n1 | > 25 µM | > 9.05 µM | > 25 µM | > 25 µM | > 25 µM | > 25 µM | > 25 µM | > 25 µM | > 5.99 µM | – | 0.831 µM | 0.238 µM | 0.828 µM | 0.34 µM | 0.272 µM | 0.157 µM | 2.37 µM | 0.537 µM | – | 0.569 µM
